Data from ChEMBL document CHEMBL5120834, “Design, synthesis and biological evaluation of 3-arylisoquinoline derivatives as topoisomerase I and II dual inhibitors for the therapy of liver cancer” (Eur J Med Chem, 2022).
Active and inactive are the calls of the source. No cut-off for these calls is given here.

Assays:
Huh-7 [1] = experiment: Induction of apoptosis in human Huh-7 cells assessed as up regulation of cytochrome c expression at 1.8 to 7 uM measured after 48 hrs by Western blot analysis; format: functional, cell-based; settings: dose 1.8-7 µM
Huh-7 [2] = experiment: Induction of apoptosis in human Huh-7 cells assessed as up regulation of cleaved caspase-9 expression at 1.8 to 7 uM measured after 48 hrs by Western blot analysis; format: functional, cell-based; settings: dose 1.8-7 µM
HCCLM9 [3] = experiment: Antiinvasive activity against human HCCLM9 cells at 0.5 to 4 uM measured after 24 hrs by crystal violet staining based light microscopy; format: functional, cell-based; settings: dose 0.5-4 µM
HCCLM9 [4] = experiment: Induction of apoptosis in human HCCLM9 cells assessed as late apoptotic cells at 3.5 uM measured after 48 hrs by Annexin V-FITC/propidium iodide staining based flow cytometry (reference value: 2.44%); format: functional
[5] = target: T1, DNA topoisomerase 1 (Homo sapiens) (UniProt P11387); experiment: Inhibition of topoisomerase 1 (unknown origin) assessed as reduction in relaxation of supercoiled plasmid pBR322 DNA at 12.5 to 100 uM incubated for 30 mins by agarose gel electrophoresis; settings: dose 12.5-100 µM
T1 sequence (whole entry): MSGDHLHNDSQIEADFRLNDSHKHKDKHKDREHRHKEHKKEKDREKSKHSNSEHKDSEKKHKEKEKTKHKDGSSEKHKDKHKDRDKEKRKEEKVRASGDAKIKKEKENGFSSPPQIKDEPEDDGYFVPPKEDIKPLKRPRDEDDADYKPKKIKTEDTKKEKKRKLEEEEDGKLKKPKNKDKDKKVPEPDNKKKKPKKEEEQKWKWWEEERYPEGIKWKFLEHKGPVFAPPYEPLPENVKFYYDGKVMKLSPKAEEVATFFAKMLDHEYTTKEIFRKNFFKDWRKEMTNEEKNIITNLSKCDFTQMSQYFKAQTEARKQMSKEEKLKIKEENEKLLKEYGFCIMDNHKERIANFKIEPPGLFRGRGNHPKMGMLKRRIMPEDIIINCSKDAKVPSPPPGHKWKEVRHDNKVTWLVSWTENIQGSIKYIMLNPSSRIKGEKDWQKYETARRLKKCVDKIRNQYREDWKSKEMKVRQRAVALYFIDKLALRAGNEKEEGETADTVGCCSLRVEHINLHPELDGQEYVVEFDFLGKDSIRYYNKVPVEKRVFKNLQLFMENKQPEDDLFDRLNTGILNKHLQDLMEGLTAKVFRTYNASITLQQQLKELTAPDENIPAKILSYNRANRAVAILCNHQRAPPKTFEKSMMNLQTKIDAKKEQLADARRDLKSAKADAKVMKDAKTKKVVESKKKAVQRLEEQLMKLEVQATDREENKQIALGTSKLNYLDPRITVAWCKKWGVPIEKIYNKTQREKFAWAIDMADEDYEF

HCCLM9 [6] = experiment: Induction of apoptosis in human HCCLM9 cells assessed as necrotic cells at 7 uM measured after 48 hrs by Annexin V-FITC/propidium iodide staining based flow cytometry (reference value: 1.27%); format: functional
HCCLM9 [7] = experiment: Inhibition of PI3K/AKT in human HCCLM9 cells assessed as reduction in AKT phosphorylation at 1.8 to 7 uM measured after 48 hrs by Western blot analysis; format: cell-based; settings: dose 1.8-7 µM
Huh-7 [8] = experiment: Induction of apoptosis in human Huh-7 cells assessed as late apoptotic cells at 14 uM measured after 48 hrs by Annexin V-FITC/propidium iodide staining based flow cytometry (reference value: 2.14%); format: functional
[9] = Acute toxicity in Kunming mouse assessed as death at 200 to 250 mg/kg, ip measured after 2 weeks; format: organism-based; settings: in vivo, 336 h, dose 200-250 mg/kg
Huh-7 [10] = experiment: Antiinvasive activity against human Huh-7 cells at 0.5 to 4 uM measured after 24 hrs by crystal violet staining based light microscopy; format: functional, cell-based; settings: dose 0.5-4 µM
Huh-7 [11] = experiment: Induction of apoptosis in human Huh-7 cells assessed as necrotic cells at 3.5 uM measured after 48 hrs by Annexin V-FITC/propidium iodide staining based flow cytometry (reference value: 0.37%); format: functional
HCCLM9 [12] = experiment: Induction of apoptosis in human HCCLM9 cells assessed as necrotic cells at 1.8 uM measured after 48 hrs by Annexin V-FITC/propidium iodide staining based flow cytometry (reference value: 1.27%); format: functional
Huh-7 [13] = experiment: Inhibition of PI3K/AKT in human Huh-7 cells assessed as reduction in AKT phosphorylation at 1.8 to 7 uM measured after 48 hrs by Western blot analysis; format: cell-based; settings: dose 1.8-7 µM
[14] = Acute toxicity in Kunming mouse assessed as death at 400 mg/kg, ip measured after 2 weeks; format: organism-based; settings: in vivo, 336 h
HCCLM9 [15] = experiment: Induction of apoptosis in human HCCLM9 cells assessed as late apoptotic cells at 14 uM measured after 48 hrs by Annexin V-FITC/propidium iodide staining based flow cytometry (reference value: 2.44%); format: functional
HCCLM9 [16] = experiment: Induction of apoptosis in human HCCLM9 cells assessed as early apoptotic cells at 7 uM measured after 48 hrs by Annexin V-FITC/propidium iodide staining based flow cytometry (reference value: 0.33%); format: functional
HCCLM9 [17] = experiment: Inhibition of PI3K in human HCCLM9 cells assessed as reduction in phosphorylation at 1.8 to 7 uM measured after 48 hrs by Western blot analysis; format: cell-based; settings: dose 1.8-7 µM
HCCLM9 [18] = experiment: Induction of apoptosis in human HCCLM9 cells assessed as viable cells at 3.5 uM measured after 48 hrs by Annexin V-FITC/propidium iodide staining based flow cytometry (reference value: 95.95%); format: functional; settings: read-out: Activity
Huh-7 [19] = experiment: Induction of apoptosis in human Huh-7 cells assessed as viable cells at 3.5 uM measured after 48 hrs by Annexin V-FITC/propidium iodide staining based flow cytometry (reference value: 96.75%); format: functional; settings: read-out: Activity
Huh-7 [20] = experiment: Induction of apoptosis in human Huh-7 cells assessed as down regulation of Bcl-2 expression at 1.8 to 7 uM measured after 48 hrs by Western blot analysis; format: functional, cell-based; settings: dose 1.8-7 µM
Huh-7 [21] = experiment: Induction of apoptosis in human Huh-7 cells assessed as viable cells at 1.8 uM measured after 48 hrs by Annexin V-FITC/propidium iodide staining based flow cytometry (reference value: 96.75%); format: functional; settings: read-out: Activity
[22] = target: T1, DNA topoisomerase 1 (Homo sapiens); experiment: Inhibition of topoisomerase 1 (unknown origin) assessed as DNA intercalation at 25 to 100 uM using pBR322 DNA as substrate measured after 30 mins by agarose gel electrophoresis; settings: dose 25-100 µM
Huh-7 [23] = experiment: Antimigratory activity against human Huh-7 cells at 0.5 to 4 uM measured after 24 hrs by crystal violet staining based light microscopy; format: functional, cell-based; settings: dose 0.5-4 µM
[24] = target: DNA topoisomerase 2-alpha (Homo sapiens) (UniProt P11388); experiment: Inhibition of human topoisomerase 2alpha assessed as reduction in relaxation of supercoiled plasmid pBR322 DNA at 1.56 to 100 uM measured after 30 mins by agarose gel electrophoresis; settings: dose 1.56-100 µM
DNA topoisomerase 2-alpha (Homo sapiens), sequence (P11388 whole entry): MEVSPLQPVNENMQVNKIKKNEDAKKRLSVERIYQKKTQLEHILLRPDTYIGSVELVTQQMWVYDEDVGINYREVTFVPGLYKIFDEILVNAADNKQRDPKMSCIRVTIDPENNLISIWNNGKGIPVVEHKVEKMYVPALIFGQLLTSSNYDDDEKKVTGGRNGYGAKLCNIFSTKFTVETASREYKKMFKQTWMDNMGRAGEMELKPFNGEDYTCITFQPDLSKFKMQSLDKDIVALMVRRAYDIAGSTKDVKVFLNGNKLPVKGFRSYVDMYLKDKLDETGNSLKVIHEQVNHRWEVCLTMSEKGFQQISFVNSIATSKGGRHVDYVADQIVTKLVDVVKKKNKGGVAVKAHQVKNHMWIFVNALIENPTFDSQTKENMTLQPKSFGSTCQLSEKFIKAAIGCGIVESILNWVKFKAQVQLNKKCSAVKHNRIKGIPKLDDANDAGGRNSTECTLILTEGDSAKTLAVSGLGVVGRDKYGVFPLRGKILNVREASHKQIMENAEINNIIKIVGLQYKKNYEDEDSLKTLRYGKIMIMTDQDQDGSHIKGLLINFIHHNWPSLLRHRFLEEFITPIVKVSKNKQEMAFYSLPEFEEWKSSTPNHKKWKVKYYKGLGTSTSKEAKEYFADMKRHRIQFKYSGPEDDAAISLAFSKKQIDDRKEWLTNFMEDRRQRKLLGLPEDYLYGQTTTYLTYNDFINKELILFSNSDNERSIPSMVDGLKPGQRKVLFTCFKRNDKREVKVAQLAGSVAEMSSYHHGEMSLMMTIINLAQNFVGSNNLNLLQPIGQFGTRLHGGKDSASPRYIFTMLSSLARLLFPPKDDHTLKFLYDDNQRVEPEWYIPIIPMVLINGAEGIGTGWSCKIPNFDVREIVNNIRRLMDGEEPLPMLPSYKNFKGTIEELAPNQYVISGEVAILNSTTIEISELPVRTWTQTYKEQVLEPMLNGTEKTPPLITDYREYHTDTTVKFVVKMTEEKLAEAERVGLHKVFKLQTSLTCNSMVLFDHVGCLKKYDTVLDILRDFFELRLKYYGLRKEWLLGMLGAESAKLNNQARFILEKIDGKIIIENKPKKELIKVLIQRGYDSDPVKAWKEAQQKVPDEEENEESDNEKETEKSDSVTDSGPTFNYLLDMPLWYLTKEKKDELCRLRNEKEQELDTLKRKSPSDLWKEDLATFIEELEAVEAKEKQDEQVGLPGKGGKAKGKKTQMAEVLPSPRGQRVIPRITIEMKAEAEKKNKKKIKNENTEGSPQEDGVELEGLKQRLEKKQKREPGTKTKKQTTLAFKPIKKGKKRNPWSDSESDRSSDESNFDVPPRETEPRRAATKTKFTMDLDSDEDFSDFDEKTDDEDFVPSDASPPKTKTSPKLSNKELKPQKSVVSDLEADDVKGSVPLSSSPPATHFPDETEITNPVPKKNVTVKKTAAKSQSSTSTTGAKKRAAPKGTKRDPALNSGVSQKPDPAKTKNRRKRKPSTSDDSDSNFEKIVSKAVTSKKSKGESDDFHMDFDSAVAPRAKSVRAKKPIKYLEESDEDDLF

HCCLM9 [25] = experiment: Inhibition of colony formation in human HCCLM9 cells measured after 24 hrs by crystal violet staining based assay; format: functional, cell-based; settings: dose 0.5-4 µM, DDE = dose-dependent effect
HCCLM9 [26] = experiment: Induction of ROS generation in human HCCLM9 cells measured after 48 hrs by flow cytometry; format: functional, cell-based; settings: dose 1.8-14 µM, DDE = dose-dependent effect
[27] = Acute toxicity in ip dosed Kunming mouse assessed as death measured after 2 weeks; format: organism-based; settings: in vivo

c1c(CN2CCCCCC2)c(-c2cc3ccc4c(c3cn2)OCO4)cc2c1OCO2
Activity (Huh-7 [1]): Active
Activity (Huh-7 [2]): Active
Activity (HCCLM9 [3]): Active
Activity (HCCLM9 [4]): 11.5%
inhibition [5]: Active
Activity (HCCLM9 [6]): 36.23%
inhibition (HCCLM9 [7]): Active
Activity (Huh-7 [8]): 5.13%
Activity [9]: Non-Toxic
Activity (Huh-7 [10]): Active
Activity (Huh-7 [11]): 0.45%
Activity (HCCLM9 [12]): 1.64%
inhibition (Huh-7 [13]): Active
Activity [14]: Toxic
Activity (HCCLM9 [15]): 8.15%
Activity (HCCLM9 [16]): 0.39%
inhibition (HCCLM9 [17]): Active
viability at 3.5 µM (HCCLM9 [18]): 83.5%
viability at 3.5 µM (Huh-7 [19]): 85.3%
Activity (Huh-7 [20]): Active
viability at 1.8 µM (Huh-7 [21]): 93.8%
inhibition [22]: Active
Activity (Huh-7 [23]): Active
inhibition [24]: Active
inhibition (HCCLM9 [25]): Dde
Activity (HCCLM9 [26]): Dde
LD50 at 336 h [27]: 250 mg/kg
